Experimental data from paper PMC9845707, “Involvement of three chemosensory proteins in perception of host plant volatiles in the tea green leafhopper, Empoasca onukii” (Frontiers in Physiology, 2023).
pIC50, pKd: −log10 of the molar value.

Key:
[1] = test system: E. onukii adults; assay: Y-tube olfactometer assay (behavioral response); format: in vivo, Empoasca onukii; conditions: 20 μL of 10 μg/μL in methanol, 90 adults per volatile
Method: We use a Y-tube olfactometer (1.5 cm in diameter, arms with 8 cm length, and a stem with 18 cm length) to detect the behavioral response of E. onukii to volatiles. The incoming air to the tube was firstly filtered using active carbon and then humidified with the ultrapure water. The air through the arms was blown at a constant flow ([…]). A total of 20 μL tested volatile oil (10 μg/μL in methanol (HPLC)) pipetted onto 1 cm diameter filter paper. This filter paper was placed in the chamber, which connected to one arm of the Y-tube olfactometer. As control, the same filter paper treated with 20 μL of methanol was placed in the chamber connected to another arm of the Y-tube. This experiment was performed in the dark room, which employed a light-emitting diode as the light source. Each adult was introduced into the middle of the stem of the Y-tube and the individuals that made a choice within 8 min were recorded. Individuals moving toward the odorant source for half of the arm distance and stayed for 1 minute were recorded as odorant choice. For each volatile component, 90 adult were used. After 10 insects were tested, the Y-tube olfactometer was washed with 75% ethanol and air-dried, and tested volatiles were placed in another arm for the subsequent tests.

[2] = biological target: EonuCSP 6-1 (Empoasca onukii, UniProt A0A343WH12); assay: Competitive fluorescence binding assay (1-NPN probe) with recombinant EonuCSP6-1
EonuCSP 6-1, sequence (A0A343WH12 entry or part of it): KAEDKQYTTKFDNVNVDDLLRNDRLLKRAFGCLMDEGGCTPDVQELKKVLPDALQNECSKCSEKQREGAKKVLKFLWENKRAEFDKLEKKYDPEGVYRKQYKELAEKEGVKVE
Method: (§1) N-phenyl-1-naphthylamine (1-NPN) was used as the fluorescent probe. The excitation wavelength in the fluorescence spectrometer was set to 337 nm, which was the results of an optimization that we achieved in lab. The scanning wavelength was 420–600 nm.
(§2) The tested chemicals were dissolved in methanol in preparation for 1 mM stock solution. […] We determined the binding constants of 1-NPN by Scatchard formula. […] The binding affinities of the competitors were evaluated from the corresponding IC50 according to the equation: K i = IC50/(1 + [1-NPN]/K1-NPN).

[3] = biological target: EonuCSP6-2 (Empoasca onukii, UniProt A0A343WH13); assay: Competitive fluorescence binding assay (1-NPN probe) with recombinant EonuCSP6-2
EonuCSP6-2, sequence (A0A343WH13 entry or part of it): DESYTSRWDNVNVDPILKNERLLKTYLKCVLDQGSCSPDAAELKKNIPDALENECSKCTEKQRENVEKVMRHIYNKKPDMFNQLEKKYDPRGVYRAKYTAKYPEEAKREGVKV
Method: as §1, §2

[4] = biological target: EonuCSP4 (Empoasca onukii, UniProt A0A343WGZ9); assay: Competitive fluorescence binding assay (1-NPN probe) with recombinant EonuCSP4
EonuCSP4, sequence (A0A343WGZ9 entry or part of it): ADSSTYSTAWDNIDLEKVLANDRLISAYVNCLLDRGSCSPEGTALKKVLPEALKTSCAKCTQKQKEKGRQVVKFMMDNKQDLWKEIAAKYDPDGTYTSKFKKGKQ
Method: as §1, §2

O=Cc1ccccc1 [Benzaldehyde]
behavioral response of E. onukii adults (choice versus methanol control) [1]: significant preference
pIC50 [2]: < 4.70

c1ccc(Nc2cccc3ccccc23)cc1 [1-NPN, N-phenyl-1-naphthylamine]
pKd [2]: 4.90
pKd [3]: 4.99
pKd [4]: 4.96

CC/C=C\CCOC(=O)CCCC [Cis-3-Hexenyl n-valerate]
behavioral response of E. onukii adults (choice versus methanol control) [1]: significant preference
